Test results as given in patent US4442031A, “Immunopotentiating peptides” (Hoffmann-La Roche Inc., priority 1983, dated 1984).
Where no end group is shown, it is not given here.

Legend:
[1] = system: P388 leukemia; test: Protective activity against P388 leukemia growth in 5-FU immunosuppressed mice; assay type: in vivo; settings: for Mean Survival days (days ± S.D.): CDF1 mice, 5-FU +, P388 +, 5-FU + saline 4.1
Method: The treatment with cytostatic agents often decreases immunocompetence and consequently increases incidence of metastasis of tumor in cancer patients. […] In the experiment shown in Table 10, male CDF1 mice (6 week old) were treated daily for 8 times with or without 5-FU (28 mg/kg/day ip.) and then transplanted subcutaneously with P388 leukemic cells (3×10^5) into footpad 24 hours later. When pretreated with 5-FU, mice died very quickly at 4 days, while normal mice survived about 23 days after the transplant. […] Thymosin α1 and compound A may improve the immunodefense system against metastatic tumor growth in cancer patients who are receiving immunosuppressive chemotherapy. In combination with thymosin α1 or compound A, more extensive cancer chemotherapy for a longer duration may be possible.
^(1) CDF1 mice were pretreated daily for 8 times from Day 8 to
with 5FU (28 mg/kg/day, ip.).
^(2) Thymosin α1 or Compound A were administered daily for
14 times from Day 8 to 5 by ip. route.
^(3) P388 leukemic cells (3 × 10^5) were inoculated into
^(4) Survival days after the inoculation of the leukemic cells.

[2] = system: Listeria monocytogenes EGD; test: Protection against Listeria monocytogenes infection in 5-FU immunosuppressed mice; assay type: in vivo; settings: for Survivors at Day 15 after infection: Table 8, i.p., 5-FU immunosuppressed mice, control 2/10
Method: (§1) Normal mice (female ddY mice, 6 weeks old) were highly tolerant to infection with Candida albicans ATCC 10231 at relatively low dose (1-2×10^5 cells, iv.). However, when pretreated daily for ten times with 5-FU (25 mg/kg/day, ip.), the mice were susceptible to infection as shown in Table 6. […] Compound A was also shown to be active against infection with Pseudomonas aeruginosa 5E81-1 and Listeria monocytogenes EGD in the immunosuppressed mice (see Tables 7 and 8).

[3] = system: delayed-type hypersensitivity (DTH); test: Restoration of delayed-type hypersensitivity (DTH) decreased by 5-FU in BDF1 mice; assay type: in vivo; settings: for DTH response %: % of control
Method: A poor prognosis is often observed in cancer patients with impaired immune response. Impaired immune response can be caused by the cancer itself, by chemotherapeutic agents, or by radiotherapy. Thus, therapeutic agents which restore impaired immune response in cancer patients are expected to play an important role in combination therapy. The restoration activity of the compounds of the invention on impaired cell-mediated immunity was determined by measuring the enhancement of delayed-type hypersensitivity (DTH), which was decreased to a great extent in mice treated with 5-fluorouracil (5-FU).
Female BDF1 mice (20-22 g, 11-12 weeks old) received (i.p. or p.o.) the compound to be tested on consecutive days one day before, concurrently with and 1 and 2 days after the 5-FU treatment. For DTH measurement, 10^8 chicken red blood cells (CRBC) were injected i.p. (or s.c. into the left hind footpad) and challenged s.c. into the right hind footpad at 3 and 7 days after the 5-FU treatment, respectively. Restoration activity was calculated by the following formula from the DTH response observed in the control group, 5-FU treated group treatment and the Test group treated both with 5-FU and the compound of the invention. Restoration activity was calculated by the formula: [formula]

[4] = system: Pseudomonas aeruginosa 5E81-1; test: Protection against Pseudomonas aeruginosa infection in 5-FU immunosuppressed mice; assay type: in vivo; settings: for Survivors at Day 15 after infection: Table 7, i.p., 5-FU immunosuppressed mice, control 0/30
Method: as §1

[5] = system: Candida albicans ATCC 10231; test: Protective activity against Candida albicans infection in 5-FU immunosuppressed mice; assay type: in vivo; settings: for Survivors Day 8 / Survivors Day 15: ddY mice; for Survivors at Day 8 after infection: Table 6, i.p., ten times with 5-FU, control 1/7
Method: In a series of examples, the compounds of formula I were tested for protective activity against opportunistic infections in immunosuppressed mice. Female ddY mice (6 weeks old) weighing about 26 g were pretreated daily for ten days with 5-fluorouracil (5-FU) (25 mg/kg/day, i.p.) and with thymosin α1 or with compounds of formula I (i.p.) at varying dosages. The mice were then infected with Candida albicans ATCC 10231 (1×10^5 cells or more) at 24 hour after the last treatment. One control group was administered 5-FU and saline solution and a second control group received neither 5-FU nor compound of formula I prior to infection with Candida albicans. The number of animals surviving eight days after infection with Candida albicans and 15 days after infection with Candida albicans is presented in the table below.
as §1

[6] = Restoration of thymus weight decreased by 5-FU injection; assay type: in vivo, mice; settings: for Av. thymus weight mg: 8 days after 5-FU, control 39.4, 5-FU alone 23.4; for Av. thymus weight %: % of control
Method: It is known that anticancer drugs suppress immunological functions by affecting immunocytes. The thymus gland, which is essential for differentiation, maturation and supply to T-cells responsible for immunological reactions, decreases markedly in weight after injection of 5-FU. […] FIfty μg/kg of Compound A administered orally was as effective as 5 μg/kg of thymosin α1 injected intraperitoneally, when the thymus weight was measured immediately after the DTH measurement at 8 days after the 5-FU injection (see Table 5).
*Seven mice per group received the test compound one day before,
concurrently with, and 1 and 2 days after 5FU injection i.p. (100 mg/kg).
The mice were injected CRBC for The DTH assay at 3 and 7 days after the
The thymus weight was measured at 8 days after the 5FU injection.

[7] = Table 2, 5-FU plus 0.05 μg/kg/day, i.p.
[8] = Table 2, 5-FU plus 0.5 μg/kg/day, i.p.
[9] = Table 2, 5-FU plus 5.0 μg/kg/day, i.p.
[10] = Table 3, second experiment, 5-FU plus 0.5 μg/kg/day, i.p.
[11] = Table 4, 5-FU plus 0.5 μg/kg/day p.o.
[12] = Table 4, 5-FU plus 5.0 μg/kg/day p.o.
[13] = Table 4, 5-FU plus 50.0 μg/kg/day p.o.
[14] = Example 8, 0.4 μg/kg i.p. daily for ten days with 5-FU
[15] = Example 8, 4.0 μg/kg i.p. daily for ten days with 5-FU
[16] = Example 8, 40.0 μg/kg i.p. daily for ten days with 5-FU
[17] = Example 10, 0.04 μg/kg i.p. daily for ten days with 5-FU
[18] = Example 10, 0.4 μg/kg i.p. daily for ten days with 5-FU
[19] = Example 10, 4.0 μg/kg i.p. daily for ten days with 5-FU
[20] = Example 11, 0.04 μg/kg i.p. daily for ten days with 5-FU
[21] = Example 11, 0.4 μg/kg i.p. daily for ten days with 5-FU
[22] = Example 11, 4.0 μg/kg i.p. daily for ten days with 5-FU

KKEVVE [Compound A, L-Lysyl-L-lysyl-L-glutamyl-L-valyl-L-valyl-L-glutamic acid]
Mean Survival days (days ± S.D.) ([1]; 0.4 μg/kg/day ip. 14 times): 22.3 ± 2.8 days
Mean Survival days (days ± S.D.) ([1]; 4 μg/kg/day ip. 14 times): 23.7 ± 2.9 days
survival days (in words) ([1]; daily treatment in addition to 5-FU, 8 times before and 6 times after the transplant): increased the survival days to the level similar to that obtained in normal mice
Survivors at Day 15 after infection ([2]; 0.04 μg/kg/day): 8/10
Survivors at Day 15 after infection ([2]; 0.4 μg/kg/day): 6/10
Survivors at Day 15 after infection ([2]; 4 μg/kg/day): 6/10
activity against infection (in words) ([2]; immunosuppressed mice): active
Restoration Activity(%) [3, 7]: 34.4%
DTH response % [3, 7]: 70.7%
DTH response av. ± S.E. (0.1 mm) ([3]; Table 2, 5-FU plus 0.05 μg/kg/day, i.p., control 10.3, 5-FU alone 5.7): 7.3 ± 0.9 0.1 mm
Restoration Activity(%) [3, 8]: 66.6%
DTH response % [3, 8]: 84.8%
DTH response av. ± S.E. (0.1 mm) ([3]; Table 2, 5-FU plus 0.5 μg/kg/day, i.p., control 10.3, 5-FU alone 5.7): 8.7 ± 1.2 0.1 mm
Restoration Activity(%) [3, 9]: 56.6%
DTH response % [3, 9]: 80.7%
DTH response av. ± S.E. (0.1 mm) ([3]; Table 2, 5-FU plus 5.0 μg/kg/day, i.p., control 10.3, 5-FU alone 5.7): 8.3 ± 0.8 0.1 mm
DTH response av. ± S.E. (0.1 mm) ([3]; Table 3, second experiment (control 15.1, 5-FU alone 8.1), 5-FU plus 0.5 μg/kg/day, i.p.): 10.8 ± 0.8 0.1 mm
Restoration Activity(%) [3, 10]: 39.1%
DTH response % [3, 10]: 71.6%
DTH response av. ± S.E. (0.1 mm) ([3]; Table 4 (control 7.7, 5-FU alone 5.6), 5-FU plus 0.5 μg/kg/day p.o.): 5.4 ± 0.9 0.1 mm
DTH response av. ± S.E. (0.1 mm) ([3]; Table 4 (control 7.7, 5-FU alone 5.6), 5-FU plus 5.0 μg/kg/day p.o.): 5.9 ± 1.0 0.1 mm
DTH response av. ± S.E. (0.1 mm) ([3]; Table 4 (control 7.7, 5-FU alone 5.6), 5-FU plus 50.0 μg/kg/day p.o.): 8.7 ± 1.2 0.1 mm
Restoration Activity(%) [3, 11]: 0%
DTH response % [3, 11]: 70.1%
Restoration Activity(%) [3, 12]: 14.3%
DTH response % [3, 12]: 76.6%
Restoration Activity(%) [3, 13]: 147.6%
DTH response % [3, 13]: 113%
DTH restoration activity (in words) ([3]; administered orally, Table 4): active when administered orally
DTH restoration activity (in words) ([3]; i.p., Tables 2 and 3): equal or in some instances, greater activity than did thymosin α1 at lower doses
Survivors at Day 15 after infection ([4]; 0.04 μg/kg/day): 5/20
Survivors at Day 15 after infection ([4]; 0.4 μg/kg/day): 12/30
Survivors at Day 15 after infection ([4]; 4 μg/kg/day): 7/30
activity against infection (in words) ([4]; immunosuppressed mice): active
Survivors Day 8 [5, 14]: 6/7
Survivors Day 15 [5, 14]: 5/7
Survivors Day 8 [5, 15]: 5/7
Survivors Day 15 [5, 15]: 4/7
Survivors Day 8 [5, 16]: 5/7
Survivors Day 15 [5, 16]: 2/7
Survivors Day 8 ([5]; Example 9, 0.4 μg/kg i.p. daily for ten days with 5-FU): 6/7
Survivors Day 8 ([5]; Example 9, 4.0 μg/kg i.p. daily for ten days with 5-FU): 5/7
Survivors Day 8 ([5]; Example 9, 40.0 μg/kg i.p. daily for ten days with 5-FU): 4/7
Survivors Day 8 [5, 17]: 6/10
Survivors Day 15 [5, 17]: 4/10
Survivors Day 8 [5, 18]: 9/10
Survivors Day 15 [5, 18]: 8/10
Survivors Day 8 [5, 19]: 9/10
Survivors Day 15 [5, 19]: 8/10
Survivors Day 8 [5, 20]: 6/10
Survivors Day 15 [5, 20]: 4/10
Survivors Day 8 [5, 21]: 9/10
Survivors Day 15 [5, 21]: 8/10
Survivors Day 8 [5, 22]: 9/10
Survivors Day 15 [5, 22]: 8/10
Survivors at Day 8 after infection ([5]; 0.4 μg/kg/day): 6/7
Survivors at Day 8 after infection ([5]; 4 μg/kg/day): 5/7
Survivors at Day 8 after infection ([5]; 40 μg/kg/day): 4/7
restoration of thymus weight (in words) ([6]; 50 μg/kg orally, one day before, concurrently with, and 1 and 2 days after 5-FU (100 mg/kg)): restore the decreased thymus weight
Av. thymus weight mg ([6]; 5-FU (100 mg/kg i.p.) plus 5.0 μg/kg/day p.o.): 23.0 ± 1.6 mg
Av. thymus weight mg ([6]; 5-FU (100 mg/kg i.p.) plus 50.0 μg/kg/day p.o.): 26.6 ± 1.0 mg
Av. thymus weight % ([6]; 5-FU plus 5.0 μg/kg/day p.o.): 58.4%
Av. thymus weight % ([6]; 5-FU plus 50.0 μg/kg/day p.o.): 67.5%
Restoration Activity(%) ([6]; thymus weight, 5-FU plus 50.0 μg/kg/day p.o.): 20.0%
